The conditions of this data set: instrument: DT, single field, calibrated with Agilent tune mix (Agilent).

“And” between values parts separate entries of the source, which are not always exact repeats. Equal values may be shown once.

Regarding `Nc1ncnc2c1ncn2[C@@H]1O[C@H](CO)[C@@H](OP(=O)(O)O)[C@H]1O` [Adenosine 3'-monophosphate], for the setting “[M-H]-”, the “collision cross section (N2)” value came to 171.18 Å².
On to `O=C(O)CC(Nc1ncnc2c1ncn2[C@@H]1O[C@H](COP(=O)(O)O)[C@@H](O)[C@H]1O)C(=O)O` (stereo not given in full) [Adenylsuccinic acid], for which the “collision cross section (N2)” value runs as follows: ([M+Na]+) 195.6 Å²; ([M-H]-) 183.19 Å².
`CC1=C(/C=C/C(C)=C/C=C/C(C)=C/C(=O)O)C(C)(C)CCC1` [All-trans-retinoic acid]: the “collision cross section (N2)” value ([M-H]-) was 203.42 Å².
As for `NC(=O)NC(NC(N)=O)C(=O)O` [Allantoic acid], for the setting “[M+Na]+”, the “collision cross section (N2)” value stood at 143 Å².
Take `NC(CSCC[C@H](N)C(=O)O)C(=O)O` (stereo not given in full) [Allocystathionine]: under “[M+H]+”, the “collision cross section (N2)” value was 146.7 Å².
On to `NC(=O)CC[C@H](NC(=O)Cc1ccccc1)C(=O)O` [Alpha-N-Phenylacetyl-L-glutamine], for which the “collision cross section (N2)” value reads like this: ([M+H]+) 158.7 Å²; ([M-H]-) 162.82 Å².
On to `Nc1ccc(C(=O)NCC(=O)O)cc1` [Aminohippuric acid], for which the “collision cross section (N2)” value came to 153.7 Å² ([M+Na]+) and 147.55 Å² ([M-H]-).
Turning to `OC[C@H]1O[C@@H](Oc2ccc(O)cc2)[C@H](O)[C@@H](O)[C@@H]1O` [Arbutin], the “collision cross section (N2)” value is, setting by setting: ([M+Na-2H]-) 159.52 Å²; ([M+Na]+) 166.6 Å².
As to `NC(=NCCC[C@H](N)C(=O)O)N[C@@H](CC(=O)O)C(=O)O` [Argininosuccinic acid], the “collision cross section (N2)” value by setting is: ([M+H]+) 163.9 Å²; ([M+Na-2H]-) 159.57 Å².
In the case of `CCCCCCCCCCCCCCCCCC(=O)OC[C@H](O)[C@H]1OC(=O)C(O)=C1O` [Ascorbyl stearate], the “collision cross section (N2)” value ([M-H]-) is reported as 207.62 Å².
On the same count and under the same terms, the same measure for `O=C(O)CCCCCCCC(=O)O` [Azelaic acid]: 137.38 Å².
Take `N[C@@H](CCCCNC(=O)CCCC[C@@H]1SC[C@@H]2NC(=O)N[C@@H]21)C(=O)O` [Biocytin]: the “collision cross section (N2)” value runs as follows: ([M+H]+) 186.8 Å²; ([M+Na-2H]-) 189.78 Å².
On to `C[C@@H](O)[C@@H](O)c1cnc2[nH]c(N)nc(=O)c2n1` [Biopterin], for which the “collision cross section (N2)” value by setting is: ([M+H]+) 153.5 Å²; ([M-H]-) 148.31 Å².
Regarding `CCCCCC(=O)O` [Caproic acid], the “collision cross section (N2)” value ([M-H]-) is recorded as 128.54 Å².
Still for that read-out and setting: under `CCCCCCCC(=O)O` [Caprylic acid] stands 139.46 Å²; under `C[C@H](CCC(=O)O)[C@H]1CC[C@H]2[C@@H]3[C@H](O)C[C@@H]4C[C@H](O)CC[C@]4(C)[C@H]3CC[C@]12C` [Chenodeoxycholate], 201.51 Å².
Turning to `NCCP(=O)(O)O` [Ciliatine], the “collision cross section (N2)” value stood at 128.7 Å² ([M+H]+) and 118.25 Å² ([M-H]-).
Consider `O=C(O)CC(O)(CC(=O)O)C(=O)O` [Citrate], for which the “collision cross section (N2)” value ([M+Na]+) is given as 142.4 Å².
On to `COc1cc(/C=C/CO)ccc1O` [Coniferol], for which the “collision cross section (N2)” value was determined as 128.6 Å² ([M+H-H2O]+) and 138.18 Å² ([M-H]-).
`Nc1ccn(C2O[C@H](CO)[C@H]3OP(=O)(O)O[C@@H]23)c(=O)n1` (stereo not given in full) [Cytidine 2',3'-cyclic phosphate]: the “collision cross section (N2)” value is, setting by setting: ([M+H]+) 162.3 Å²; ([M+Na-2H]-) 161.98 Å².
Turning to `CC(=O)N[C@H]1[C@H]([C@H](O)[C@H](O)CO)O[C@](OP(=O)(O)OC[C@H]2O[C@@H](n3ccc(N)nc3=O)[C@H](O)[C@@H]2O)(C(=O)O)C[C@@H]1O` [Cytidine monophosphate N-acetylneuraminic acid], the “collision cross section (N2)” value ([M+Na]+) stood at 220.7 Å² and the “collision cross section (N2)” value ([M-H]-) is 215.5 Å².
As for `OC[C@H]1OC(O)[C@H](O)[C@@H](O)[C@H]1O` (stereo partly drawn) [D-(+)-Galactose], the “collision cross section (N2)” value ([M+Na]+) is 142.1 Å².
As to `O=C(O)[C@@H](O)[C@@H](O)[C@H](O)[C@@H](O)C(=O)O` [D-Glucarate], the “collision cross section (N2)” value ([M-H]-) is 130.5 Å² and 130.92 Å².
Regarding `Nc1nc(=O)c2nc([C@H](O)[C@H](O)CO)cnc2[nH]1` [D-Neopterin], the “collision cross section (N2)” value is, setting by setting: ([M+H]+) 157.1 Å²; ([M-H]-) 150.31 Å².
For `NCCC[C@@H](N)C(=O)O` [D-Ornithine], the “collision cross section (N2)” value ([M-H]-) came to 126.74 Å².
With `O=C(CO)[C@H](O)[C@H](O)COP(=O)(O)O` [D-Ribulose 5-phosphate], the “collision cross section (N2)” value ([M+Na]+) is on record as 148.8 Å².
As for `OCC1(O)OC[C@@H](O)[C@H](O)[C@@H]1O` (stereo partly drawn) [D-Tagatose], the “collision cross section (N2)” value runs as follows: ([M+Na]+) 139 Å²; ([M-H]-) 129.77 Å².
As to `N[C@H]1C(O)O[C@H](COP(=O)(O)O)[C@@H](O)[C@@H]1O` (stereo partly drawn) [D-glucosamine 6-phosphate], where the note is “[M+Na]+”, the “collision cross section (N2)” value is 156.6 Å².
With `C[C@H](CCC(=O)O)[C@H]1CC[C@H]2[C@@H]3CC[C@@H]4C[C@H](O)CC[C@]4(C)[C@H]3C[C@H](O)[C@]12C` [Deoxycholic acid], for the setting “[M-H]-”, the “collision cross section (N2)” value was 200.7 Å².
For `Nc1ccn([C@H]2C[C@H](O)[C@@H](COP(=O)(O)OP(=O)(O)OP(=O)(O)O)O2)c(=O)n1` [Deoxycytidine 5'-triphosphate], the “collision cross section (N2)” value ([M-H]-) came to 176.92 Å².
The same measure, in the same setting: the same measure for `Nc1nc(=O)c2ncn([C@H]3C[C@H](O)[C@@H](COP(=O)(O)OP(=O)(O)OP(=O)(O)O)O3)c2[nH]1` [Deoxyguanosine triphosphate]: 189.26 Å².
In the case of `Cc1cn([C@H]2C[C@H](O)[C@@H](COP(=O)(O)O)O2)c(=O)[nH]c1=O` [Deoxythymidine 5'-phosphate], under “[M+Na]+”, the “collision cross section (N2)” value is on record as 173.1 Å².
On to `CC(C)=CCC[C@@H](C)[C@H]1CC[C@H]2[C@@H]3CC=C4C[C@@H](O)CC[C@]4(C)[C@H]3CC[C@]12C` [Desmosterol], for which the “collision cross section (N2)” value is, setting by setting: ([M+H-H2O]+) 199.4 Å²; ([M-H]-) 210.05 Å².
Take `Cc1cc2nc[nH]c2cc1C` [Dimethylbenzimidazole]: the “collision cross section (N2)” value stood at 129.9 Å² ([M+H]+) and 127.73 Å² ([M-H]-).
Turning to `CCCCCCCC/C=C\CCCCCCCCCCCC(=O)O` [Erucic acid], under “[M-H]-”, the “collision cross section (N2)” value was 188.5 Å².
Take `Cc1cc2nc3c(=O)[nH]c(=O)nc-3n(C[C@H](O)[C@H](O)[C@H](O)COP(=O)(O)OP(=O)(O)OC[C@H]3O[C@@H](n4cnc5c(N)ncnc54)[C@H](O)[C@@H]3O)c2cc1C` [Flavin adenine dinucleotide]: the “collision cross section (N2)” value ([M+H]+) was found to be 247.3 Å².
Turning to `Nc1nc(=O)c2c([nH]1)NCC(CNc1ccc(C(=O)N[C@@H](CCC(=O)O)C(=O)O)cc1)N2C=O` (stereo not given in full) [Folinic acid], the “collision cross section (N2)” value reads like this: ([M+H]+) 196.9 Å²; ([M-H]-) 196.26 Å².
As for `O=CNc1ccccc1C(=O)O` [Formylanthranilic acid], the “collision cross section (N2)” value came out at 125.7 Å² ([M+H-H2O]+) and 127.28 Å² ([M-H]-).
Turning to `N[C@@H](CCC(=O)N[C@@H](CS)C(=O)O)C(=O)O` [Gamma-Glutamylcysteine], the “collision cross section (N2)” value ([M+H]+) was 157.7 Å².
Consider `O=C(O)c1cc(O)ccc1O` [Gentisic acid], for which the “collision cross section (N2)” value ([M-H]-) is 122.67 Å².
As to `CC(C)=CCC/C(C)=C/COP(=O)(O)OP(=O)(O)O` [Geranyl diphosphate], the “collision cross section (N2)” value ([M-H2O-H]-) is on record as 161.5 Å².
Consider `O=C(O)CCCC(=O)O` [Glutaric acid], for which the “collision cross section (N2)” value ([M-H]-) is listed as 120.08 Å².
On to `CC(C)(COP(=O)(O)OP(=O)(O)OC[C@H]1O[C@@H](n2cnc3c(N)ncnc32)[C@H](O)[C@@H]1OP(=O)(O)O)[C@@H](O)C(=O)NCCC(=O)NCCSC(=O)CCCC(=O)O` [Glutaryl-CoA], for which the “collision cross section (N2)” value by setting is: ([M+H]+) 260.5 Å²; ([M-H]-) 252.39 Å².
The matching figures for `CC(C)C[C@H](NC(=O)CN)C(=O)O` [Glycyl-L-leucine]: 149.5 Å² and 142.07 Å².
For the compound `NCC(=O)N1CCCC1C(=O)O` (stereo not given) [Glycylproline], the “collision cross section (N2)” value is 136.4 Å² ([M+H]+) and 134.59 Å² ([M-H]-).
With `Nc1nc(=O)c2ncn([C@@H]3O[C@H](COP(=O)(O)O)[C@@H](O)[C@H]3O)c2[nH]1` [Guanosine 5'-monophosphate], the “collision cross section (N2)” value ([M+H]+) is 178.9 Å².
Take `CCCCCCCCCCCCCCCCC(=O)O` [Heptadecanoic acid]: the “collision cross section (N2)” value ([M-H]-) is listed as 170.78 Å².
Same read-out and setting: the same measure for `CCCCCC(=O)NCC(=O)O` [Hexanoylglycine]: 144.64 Å².
As for `O=C(O)Cc1cc(O)ccc1O` [Homogentisic acid], the “collision cross section (N2)” value ([M+H-H2O]+) is on record as 135.9 Å².
As to `CN(C)CCc1ccc(O)cc1` [Hordenine], the “collision cross section (N2)” value reads like this: ([M+H]+) 137.8 Å²; ([M-H]-) 143.21 Å².
For `CC(C)C[C@H](O)C(=O)O` [Hydroxyisocaproic acid], the “collision cross section (N2)” value ([M-H]-) is reported as 126.06 Å².
The same measure, in the same setting: under `O=C(O)/C=C/c1c[nH]c2ccccc12` [Indole-3-acrylic acid] stands 134.53 Å².
On the same count and under the same terms, under `O=C(O)C(=O)Cc1c[nH]c2ccccc12` [Indole-3-pyruvic acid] stands 138.82 Å².
Same read-out and setting: under `C=C(C)CCOP(=O)(O)OP(=O)(O)O` [Isopentenyl pyrophosphate] stands 141.71 Å².
Consider `N[C@@H](CC(=O)O)C(=O)N[C@@H](Cc1ccccc1)C(=O)O` [L-Aspartyl-L-phenylalanine], for which the “collision cross section (N2)” value by setting is: ([M+H]+) 164.9 Å²; ([M+Na-2H]-) 162.34 Å².
As for `NCCC(=O)N[C@@H](Cc1cnc[nH]1)C(=O)O` [L-Carnosine], the “collision cross section (N2)” value by setting is: ([M+H]+) 151 Å²; ([M-H]-) 149.72 Å².
Consider `NC(=O)NCCC[C@H](N)C(=O)O` [L-Citrulline], for which the “collision cross section (N2)” value ([M+H]+) came out at 138 Å².

Source of the values: the C3SDB collision cross section collection.
